Data set [1] is described as follows: AUC (0 to 6 hrs) in rat at 10 mg/kg, po. Format: ADME, organism-based. Also noted: time < 6 hr, dose 10 mg/kg, route oral. Particulars: plasma.
For data set [2], the target named is T1, Proteinase-activated receptor 1 (Homo sapiens, UniProt P25116).
T1 sequence (P25116 whole entry): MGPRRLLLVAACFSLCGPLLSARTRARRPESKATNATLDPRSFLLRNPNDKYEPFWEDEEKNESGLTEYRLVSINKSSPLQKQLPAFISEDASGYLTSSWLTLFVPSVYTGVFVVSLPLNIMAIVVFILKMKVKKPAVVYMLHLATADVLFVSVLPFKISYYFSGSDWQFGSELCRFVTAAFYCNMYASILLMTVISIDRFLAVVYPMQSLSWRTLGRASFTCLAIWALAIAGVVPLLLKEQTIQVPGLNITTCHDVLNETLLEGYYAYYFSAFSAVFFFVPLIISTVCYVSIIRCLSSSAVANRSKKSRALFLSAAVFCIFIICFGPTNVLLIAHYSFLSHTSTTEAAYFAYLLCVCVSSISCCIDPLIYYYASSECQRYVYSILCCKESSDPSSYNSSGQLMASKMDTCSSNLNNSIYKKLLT
Description: Displacement of [3H]haTRAP from PAR-1 receptor in human platelet membranes after 1 hr by scintillation counting analysis. It is filed as cell membranes. For orientation: Loss of bound radioactivity is the signal in a displacement assay; it reports binding, not function.

Turning to `C[C@H]1OC(=O)[C@@H]2C[C@@H]3C[C@@]4(CC[C@H]3[C@H](/C=C/c3ccc(-c5cccc(C(F)(F)F)c5)cn3)[C@H]12)CNC(=O)O4`, in data set [1], the AUC(0-t) (commonly the area under the concentration-time curve up to a stated or last time point) at 6 h stood at 3200 ng·h/mL. For the same compound, in data set [2], affinity was put at a Ki of 31.5 nM.

`C[C@H]1OC(=O)[C@@H]2C[C@@H]3C[C@@]4(CC[C@H]3[C@H](/C=C/c3ccc(-c5ccccn5)cn3)[C@H]12)COC(=O)N4`: the Ki (as a rule, a measure of affinity in units of concentration, obtained from inhibition or displacement) in data set [2] was found to be 232 nM.

`C[C@H]1OC(=O)[C@@H]2C[C@@H]3C[C@]4(CC[C@H]3[C@H](/C=C/c3ccc(-c5cccc(F)c5)cn3)[C@H]12)COC(=O)N4`: the AUC(0-t) at 6 h in data set [1] came out at 3240 ng·h/mL. Moreover, the affinity in data set [2], expressed as Ki, was 15.5 nM.

In data set [2], `C[C@H]1OC(=O)[C@@H]2C[C@@H]3C[C@@]4(CC[C@H]3[C@H](/C=C/c3ccc(-c5cccc(C#N)c5)cn3)[C@H]12)COC(=O)N4` had a Ki of 43 nM. This lies in the double-digit nanomolar range.

For `C[C@H]1OC(=O)[C@@H]2C[C@@H]3C[C@@]4(CC[C@H]3[C@H](/C=C/c3ccc(-c5ccccc5C#N)cn3)[C@H]12)COC(=O)N4`, the inhibition constant (Ki) in data set [2] is 8.9 nM.

In turn, `C[C@H]1OC(=O)[C@@H]2C[C@@H]3C[C@]4(CC[C@H]3[C@H](/C=C/c3ccc(-c5cccc(C(F)(F)F)c5)cn3)[C@H]12)COC(=O)N4` returned an AUC(0-t) at 6 h in data set [1] of 4920 ng·h/mL. The Ki in data set [2] amounted to 21 nM.

For `C[C@H]1OC(=O)[C@@H]2C[C@@H]3C[C@@]4(CC[C@H]3[C@H](/C=C/c3ccc(-c5cccc(F)c5)cn3)[C@H]12)COC(=O)N4`, affinity in data set [2] was put at a Ki of 28 nM.

On to `C[C@H]1OC(=O)[C@@H]2C[C@@H]3C[C@]4(CC[C@H]3[C@H](/C=C/c3ccc(-c5cccc(C(F)(F)F)c5)cn3)[C@H]12)CNC(=O)O4`, for which affinity in data set [2] was put at a Ki of 392 nM.

On to `C[C@H]1OC(=O)[C@@H]2C[C@@H]3C[C@@]4(CC[C@H]3[C@H](/C=C/c3ccc(-c5cccc(C(F)(F)F)c5)cn3)[C@H]12)COC(=O)N4`, for which the Ki in data set [2] was 26.5 nM.

In data set [2], `C[C@H]1OC(=O)[C@@H]2C[C@@H]3C[C@]4(CC[C@H]3[C@H](/C=C/c3ccc(-c5cccc(C#N)c5)cn3)[C@H]12)COC(=O)N4` returned an inhibition constant Ki of 267 nM. This Ki lies about 10-fold higher than the previous one.

`C[C@H]1OC(=O)[C@@H]2C[C@@H]3C[C@]4(CC[C@H]3[C@H](/C=C/c3ccc(-c5ccccc5C#N)cn3)[C@H]12)COC(=O)N4` returned a Ki in data set [2] of 5.1 nM. This Ki is about 52-fold lower than that of the compound before.

Compound `C[C@H]1OC(=O)[C@@H]2C[C@@H]3C[C@@]4(CC[C@H]3[C@H](/C=C/c3ccc(-c5ccccc5F)cn3)[C@H]12)COC(=O)N4` gave a Ki in data set [2] of 25 nM.
